Data on one compound can be found in paper PMC6934184, “Selective DNA-PKcs inhibition extends the therapeutic index of localized radiotherapy and chemotherapy” (The Journal of Clinical Investigation, 2019).

SMILES strings stand for the structures.

Data set [1] relates to Calu-6 subcutaneous xenografts. The data set can be described thus: subcutaneous Calu-6 xenograft with tumor-localized irradiation. Type of data set: in vivo, mouse. The settings on record: for mean tumor volume: NU5455 30 mg/kg oral single dose 30 min before 3.3 Gy. As to the method:
Subcutaneous non–small cell lung cancer xenografts were generated in CD-1 nude or BALB/c nude mice using A549 and Calu-6 cells, respectively, as previously described ([53]). When tumors reached 100 mm^3, mice were randomized into 4 groups (n = 7–9 per group) to receive (a) vehicle (orally) 30 minutes before mock radiation, (b) NU5455 (30 mg/kg orally) 30 minutes before mock radiation, (c) targeted tumor radiation at a single dose of 3.3 or 10 Gy, or (d) NU5455 (30 mg/kg orally) 30 minutes before 3.3 Gy or 10 Gy targeted tumor radiation. For targeted irradiation of subcutaneous tumors, anesthetized mice were restrained in a lead-shielded container with only the tumor exposed, and x-ray radiation applied using an RS320 irradiation system (Gulmay Medical) at a dose rate of 1.82 Gy/min.
Establishment of subcutaneous NSCLC xenograft models
NSCLC subcutaneous xenografts were generated as previously described ( 53). Briefly, 6-8 week-old female BALB/c nude or CD-1 nude mice (Charles River Laboratories) were anaesthetized with 2% isoflurane (Zoetis), and 5 x 10^6 Calu-6 or A549 cells in 50% Matrigel (BD Biosciences), respectively, were subcutaneously injected into a single site on the back of the mouse. Mouse weights and tumor volumes (1/2 x length x width x depth) were measured three times a week.
Targeted radiotherapy in subcutaneous and orthotopic NSCLC xenograft models When subcutaneous xenografts reached 100 mm3, mice were randomized into four groups (n = 7 - 11/group): (i) N-Methyl-2-pyrrolidone (NMP): 30% Encapsin : PEG400 (1:6:3 v/v/v) vehicle p.o. 30 minutes prior to mock radiation. (ii) NU5455 (30 mg/kg p.o.) 30 minutes prior to mock radiation. (iii) Targeted tumor radiation at a single dose of 3.3 or 10 Gy. (iv) NU5455 (30 mg/kg p.o.) 30 minutes prior to 3.3 Gy or 10 Gy targeted tumor radiation. For targeted irradiation of subcutaneous tumors, anaesthetized mice were restrained in a lead -shielded container with only the tumor exposed. X -ray radiation was applied using an RS320 irradiation system ( Gulmay Medical) at a dose rate of 1.82 Gy/minute. Three animals from each group were humanely killed at 5 and/or 24 hours after irradiation, and the tumors processed for immunohistochemistry (IHC). […]
Immunohistochemistry in lung tumor xenografts and normal lung tissue
Tissues were fixed in 4% paraformaldehyde (PFA) and paraffin -embedded. Sections were stained using primary antibodies against γH2AX (JBW301, 1:1000, Millipore #05-636), 53BP1 (1:500, Cell Signaling #4937), and cleaved caspase 3 (CC3, 1:600, Cell Signaling #9661) and the EnVision G2 Doublestain System (Dako #K5361), according to the manufacturer’s instructions. One tissue section from each of 3 mice per group was examined, and the whole

For another data set, the system named is MCF7 cells. The data set can be described thus: clonogenic survival with IR. Type of data set: cell-based, Human. The settings on record: 1 μM. As to the method: Cell line γH2AX and 53BP1 foci immunofluorescence and quantitation
Cells grown on coverslips or in 96-well plates were treated with 1 or 5 µM NU5455 or DMSO 1 hour prior to irradiation (0, 2.5 or 10 Gy) using an RS 320 X-ray Research System (Gulmay Medical). At set timepoints (15 or 30 minutes, or 1, 4, 5, 6, or 24 hours post-irradiation), cells were washed and fixed in methanol or 3% paraformaldehyde (PFA). […] In A549 and Calu-6, cells were Hoechst stained (5 µg/ml), and the average numbers of γH2AX and 53BP1 foci per cell were quantified from 400 nuclei per sample using an In Cell analyzer 1000 (GE Healthcare). For MCF7 cells, coverslips were mounted using Vectashield mounting medium with DAPI (Vector Labs) and imaged using a Leica TCS SPE confocal fluorescence microscope. Total fluorescence intensity was determined using ImagePro Plus 5.0 software (Media Cybernetics). […]
Cells were washed in phosphate-buffered saline (PBS), trypsinized and counted. […] Colonies were fixed using Carnoys fixture (75% v/v methanol, 25% v/v acetic acid, Fisher), stained with crystal violet (0.4% w/v in water), and counted using a ColCount automated colony counter (Oxford Optronics). Cell survival was calculated as a percentage of the untreated control. […]

Take `CN(C(=O)CN1CCOCC1)c1ccc2sc3c(-c4cccc5c(=O)cc(N6CC7CCC(C6)O7)oc45)cccc3c2c1` [NU5455]: the “adverse effect or impact on body weight” value in data set [1] (NU5455 30 mg/kg oral + 10 Gy) was “without any adverse effect or impact on body weight”. The antitumor response result in data set [1] (NU5455 30 mg/kg oral + 10 Gy) is reported as “regression of Calu-6 tumors was induced”. The mean tumor volume is on record as 104 mm^3 in data set [1] (day 0) and 102 mm^3 in data set [1] (day 6). Besides, the “mice having no evidence of tumor at the end of the experiment” value in data set [1] (day 38, NU5455 30 mg/kg oral + 10 Gy) was 3 of 6. The “radiation-induced γH2AX foci remaining, fold greater with concomitant NU5455” value in data set [1] (tumor, 5 hours after 3.3 Gy, 30 mg/kg oral) turned out to be 3.0 fold. The “radio-enhancement (LD80)” value in the data set with MCF7 cells (24-hour treatment after IR) worked out at 2.4 fold; with MCF7 cells (1 hour of treatment after IR), 1.2 fold.
